A short description of data set [1]: Rat oral bioavailability assay. The class given is in vivo. To be noted: plasma, Sprague-Dawley rats, IV 1 mg/kg, PO 10 mg/kg, read-out: oral bioavailability (% F). As to the method: Administer the test compound to Sprague-Dawley rats IV at 1 mg/kg (using vehicles of either: 20% CAPTISOL© in 25 mM sodium phosphate buffer, pH2 quantum satis; or 25% DMA, 15% EtOH, 10% propylene glycol, 25% 2-pyrrolidone, and 25% purified water) and PO at 10 mg/kg (using a vehicle of 1% hydroxyethyl cellulose, 0.25% polysorbate 80, 0.05% Antifoam 1510-US, and purified water quantum satis). Collect serial blood samples at 0.08, 0.25, 0.5, 1, 2, 4, 8, and 12 hours post dose for IV bolus and at 0.25, 0.5, 1, 2, 4, 8, and 12 hours post dose after oral administration. After treatment with an EDTA […], obtain plasma by centrifugation and stored at −70° C. until analysis by LC-MS/MS. Determine the test compound concentration in plasma and upload into the Watson LIMS™ system where noncompartmental analysis is used to calculate Area Under the Curve (AUC) for both IV and PO arms. Calculate oral bioavailability (% F) via the following equation, % F=(AUCPO×DoseIV)/(AUCIV×DosePO)×100.

The next data set has as its system ERα receptor. The data set can be described thus: PRα inhibition (ERα functional antagonism) cell assay in MCF7 cells. The format is cell-based. To be noted: Homo sapiens, pretreated with 0.47 nM estradiol, n=15, read-out: Relative IC50 (nM), PRα inhibition. The source says:
The purpose of the following PRα inhibition (ERα functional antagonism) cell assay is to determine the antagonistic activity of a test compound against the ERα receptor. An antagonist in this assay is expected to block the function of the ERα receptor.
Carry out the assay conditions as detailed in the ERα degradation Cell base Acumen assay above, using the MCF7 cell line except that, prior to test compound dispensing, remove the media from the cell plate and pretreat all wells except for the negative control wells (column 24 of the plate) with assay media containing 0.47 nM estradiol for 30 minutes. In this assay, carry out immunostaining for the detection of PRα and scan the plates with ACUMEN EXPLORER™ [Laser-scanning fluorescence microplate cytometer manufactured by TTP LABTECH LTD] to measure PRα. Image analysis is based on cellular fluorescent signals for identifying positive cells. Identify PRα positive cells by mean intensity. Use total intensity at 575-640 from propidium iodide/DNA to identify individual cells. Assay output is % PRα positive cells. Determine the IC50 by curve fitting to a four parameter logistic for each output using GENE DATA™.

Another data set deals with T1, ERα (Y537S mutant) (Homo sapiens, UniProt P03372, Y537S).
T1 sequence (P03372 1-595 Y537S): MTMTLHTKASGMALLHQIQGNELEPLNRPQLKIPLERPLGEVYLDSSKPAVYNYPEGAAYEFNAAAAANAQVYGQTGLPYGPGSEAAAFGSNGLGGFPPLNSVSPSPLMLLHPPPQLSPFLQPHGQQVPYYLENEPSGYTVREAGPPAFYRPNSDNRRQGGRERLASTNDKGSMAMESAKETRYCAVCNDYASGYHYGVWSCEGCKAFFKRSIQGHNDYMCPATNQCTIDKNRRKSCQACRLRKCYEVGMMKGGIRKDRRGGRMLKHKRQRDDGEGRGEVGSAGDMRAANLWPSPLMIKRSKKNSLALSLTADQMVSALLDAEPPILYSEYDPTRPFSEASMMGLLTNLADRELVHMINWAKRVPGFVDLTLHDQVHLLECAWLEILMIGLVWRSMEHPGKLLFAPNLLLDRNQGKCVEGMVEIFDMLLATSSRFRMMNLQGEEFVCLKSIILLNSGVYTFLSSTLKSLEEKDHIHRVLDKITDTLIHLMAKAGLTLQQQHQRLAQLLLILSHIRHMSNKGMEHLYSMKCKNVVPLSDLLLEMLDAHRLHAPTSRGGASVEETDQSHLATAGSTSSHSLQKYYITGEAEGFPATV
Briefly: ERα (Y537S mutant) competition binding assay. As to conditions: 3H-estradiol competition, n=3. On the procedure:
The purpose of the following ER competition binding assays is to determine the binding affinity of a test compound against ERα (wild type) and ERα (Y537S mutant) See Fanning et al., “Estrogen receptor alpha somatic mutations Y537S and D538G confer breast cancer endocrine resistance by stabilizing the activating function-2 binding conformation,” eLife 2016; 5:e12792.
Run the competition binding assay in a buffer containing 50 mM HEPES, pH 7.5, 1.5 mM EDTA, 150 mM NaCl, 10% glycerol, 1 mg/mL ovalbumin, and 5 mM DTT, using 0.025 µCi per well ^3H-estradiol (118 Ci/mmol, 1 mCi/mL), 7.2 ng/well ERα (wild type), or 7.2 ng/well ERα (Y537S mutant). Add the test compound at 10 different concentrations ranging from 10,000 nM to 0.5 nM, and determine nonspecific binding in the presence of 1 μM of […]. Incubate the binding reaction (140 μL) for 4 hours at room temperature, and then add cold dextran-charcoal buffer (70 μL) (containing per 50 mL of assay buffer, 0.75 g of charcoal and 0.25 g of dextran) to each reaction. Mix the plates for 8 minutes on an orbital shaker at 4° C. and then centrifuge at 3000 rpm at 4° C. for 10 minutes. […] After an incubation of 2.5 hours, read the plates in a Wallac Microbeta counter. […]

As for `O=C(c1ccc(OCCN2CC(CF)C2)cc1)c1c(-c2ccc(C(F)(F)F)cc2F)cnc2cc(O)ccc12` [Example 1, (4-{2-[3-(Fluoromethyl)azetidin-1-yl]ethoxy}phenyl){3-[2-fluoro-4-(trifluoromethyl)phenyl]-7-hydroxyquinolin-4-yl}methanone], in data set [1], the bioavailability was found to be 27%. In the data set with ERα receptor, the IC50 turned out to be 15.8 ± 9.04 nM. In addition, the Ki at ERα (Y537S mutant) worked out at 21.2 ± 2.12 nM.

(Values after patent publication US12128040B2, “Selective estrogen receptor degraders” (Eli Lilly and Company, priority 2018, dated 2024).)
